Experiment [1] addresses T1, rat TRPV1 (Rattus norvegicus, UniProt O35433).
T1 construct: expressed in transfected cells; host or cells: HEK293 (rTRPV1/HEK293), geneticin selection
Description: Functional assay: block of capsaicin-induced Ca2+ influx, rat assay (rTRPV1/HEK293, FLIPR). The settings on record: rTRPV1/HEK293 cells, capsaicin challenge, Fluo-3 fluorescence; mean; > value = solubility limit in assay medium. Format: cell-based. The gist of the method:
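Compounds, as free base or TFA salt, tested from 10 μM in three-fold steps on rTRPV1-transfected HEK293 cells, with 30 min preincubation in low-calcium (20 μM) buffer. Capsaicin-evoked Ca2+ influx measured by FLIPR fluo3 signal before and 100 s after addition. Averaged IC50 from non-linear fits.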

For experiment [2], the target named is T2, human TRPV1 (Homo sapiens, UniProt Q8NER1).
T2 construct: expressed in transfected cells; host or cells: HEK293 (hTRPV1/HEK293), zeocin selection
Description: Functional assay: block of capsaicin-induced Ca2+ influx, human assay (hTRPV1/HEK293, FLIPR). Format: cell-based. The settings on record: hTRPV1/HEK293 cells, 150 nM capsaicin challenge, Fluo-3 fluorescence; mean; > value = solubility limit in assay medium. The procedure, abridged:
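HEK293 cells stably expressing human TRPV1, fluo3-loaded, preincubated 30 min with compound (serial 3-fold dilutions from 10 μM, duplicate) in 20 μM Ca2+ buffer. Capsaicin response taken as fluo3 fluorescence change before vs 100 s after agonist; IC50 by non-linear regression, mean values; free base or TFA salt.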

T1 sequence (O35433 whole entry): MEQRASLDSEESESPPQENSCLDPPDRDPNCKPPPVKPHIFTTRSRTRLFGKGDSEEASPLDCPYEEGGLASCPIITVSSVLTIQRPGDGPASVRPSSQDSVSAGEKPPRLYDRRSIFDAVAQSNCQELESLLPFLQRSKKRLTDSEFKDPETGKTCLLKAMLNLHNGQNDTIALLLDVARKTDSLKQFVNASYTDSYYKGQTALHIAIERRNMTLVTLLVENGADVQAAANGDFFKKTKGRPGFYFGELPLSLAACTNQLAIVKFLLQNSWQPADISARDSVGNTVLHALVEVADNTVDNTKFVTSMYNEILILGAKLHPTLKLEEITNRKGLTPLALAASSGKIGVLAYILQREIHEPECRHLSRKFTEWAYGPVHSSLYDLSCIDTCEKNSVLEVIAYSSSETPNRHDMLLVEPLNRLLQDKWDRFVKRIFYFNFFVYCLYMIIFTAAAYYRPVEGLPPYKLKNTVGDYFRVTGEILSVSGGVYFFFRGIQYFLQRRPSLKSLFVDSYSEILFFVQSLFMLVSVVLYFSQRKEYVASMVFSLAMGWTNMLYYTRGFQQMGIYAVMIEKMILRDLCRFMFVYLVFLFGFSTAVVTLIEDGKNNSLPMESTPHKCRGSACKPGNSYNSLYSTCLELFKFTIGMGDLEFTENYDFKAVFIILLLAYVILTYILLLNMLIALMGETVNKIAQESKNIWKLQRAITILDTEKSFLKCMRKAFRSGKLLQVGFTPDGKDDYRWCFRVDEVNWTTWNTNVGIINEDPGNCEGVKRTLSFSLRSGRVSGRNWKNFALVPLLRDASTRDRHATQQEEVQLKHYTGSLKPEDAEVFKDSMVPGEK
T2 sequence (Q8NER1 whole entry): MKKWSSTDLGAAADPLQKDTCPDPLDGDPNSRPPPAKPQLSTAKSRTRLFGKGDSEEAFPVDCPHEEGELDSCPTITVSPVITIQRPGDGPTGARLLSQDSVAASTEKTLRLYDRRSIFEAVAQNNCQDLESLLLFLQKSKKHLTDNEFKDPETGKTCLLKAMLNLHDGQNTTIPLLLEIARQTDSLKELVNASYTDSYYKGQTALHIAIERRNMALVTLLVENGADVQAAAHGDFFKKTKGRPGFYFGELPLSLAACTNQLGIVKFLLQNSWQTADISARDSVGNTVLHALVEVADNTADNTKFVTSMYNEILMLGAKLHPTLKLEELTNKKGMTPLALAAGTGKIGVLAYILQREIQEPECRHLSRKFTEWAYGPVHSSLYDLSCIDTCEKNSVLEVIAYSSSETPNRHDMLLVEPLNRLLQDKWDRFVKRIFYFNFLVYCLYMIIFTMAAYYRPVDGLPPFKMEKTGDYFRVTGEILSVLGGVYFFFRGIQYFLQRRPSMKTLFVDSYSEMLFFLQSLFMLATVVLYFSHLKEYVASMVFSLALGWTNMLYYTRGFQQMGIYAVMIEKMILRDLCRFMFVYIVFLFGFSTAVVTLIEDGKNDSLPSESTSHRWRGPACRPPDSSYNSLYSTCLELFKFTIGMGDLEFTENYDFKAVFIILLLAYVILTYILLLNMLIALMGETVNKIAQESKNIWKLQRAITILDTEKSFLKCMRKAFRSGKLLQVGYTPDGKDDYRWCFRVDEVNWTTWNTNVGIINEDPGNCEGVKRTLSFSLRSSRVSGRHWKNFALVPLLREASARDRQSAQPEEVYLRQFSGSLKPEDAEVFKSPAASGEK

As a reminder, the IC50 is the point on the concentration scale where inhibition reaches its midpoint. Read a low IC50 as greater potency. With `Cc1nc(Nc2ccc(C(F)(F)F)cc2)c2nc(Nc3ccccc3Cl)sc2n1` [Example 202, N^2-(2-Chloro-phenyl)-5-methyl-N^7-(4-trifluoromethyl-phenyl)-thiazolo[5,4-d]pyrimidine-2,7-diamine], the IC50 in experiment [1] came to 58 nM; in experiment [2], 57 nM.

For `O=S(=O)(c1ccc(Nc2ncnc3sc(Nc4ccccc4Cl)nc23)cc1)C(F)(F)F` [Example 203, N^2-(2-Chloro-phenyl)-N^7-(4-trifluoromethanesulfonyl-phenyl)-thiazolo[5,4-d]pyrimidine-2,7-diamine], the IC50 in experiment [1] came to 76 nM; in experiment [2], 48 nM.

For `Clc1cccc(Cl)c1Nc1nc2c(Nc3ccccc3)ncnc2s1` [Example 204, N^2-(2,6-Dichloro-phenyl)-N^7-phenyl-thiazolo[5,4-d]pyrimidine-2,7-diamine], the IC50 in experiment [1] came to 226 nM; in experiment [2], 213 nM.

Turning to `Cc1nc(Nc2ccc(C(F)(F)F)cc2)c2nc(Nc3cccc4nsnc34)sc2n1` [Example 205, N^2-Benzo[1,2,5]thiadiazol-4-yl-5-methyl-N^7-(4-trifluoromethyl-phenyl)-thiazolo[5,4-d]pyrimidine-2,7-diamine], the results for the IC50 in experiment [1] and in experiment [2] were 12500 nM and 16600 nM, respectively.

As to `Cc1nc(Nc2ccc(C(F)(F)F)cc2)c2nc(Nc3ccccc3[N+](=O)[O-])sc2n1` [Example 206, 5-Methyl-N^2-(2-nitro-phenyl)-N^7-(4-trifluoromethyl-phenyl)-thiazolo[5,4-d]pyrimidine-2,7-diamine], the IC50 stood at 1710 nM in experiment [1] and 2470 nM in experiment [2].

As for `COC(=O)c1scc(C)c1Nc1nc2c(Nc3ccc(C(F)(F)F)c(Cl)c3)ncnc2s1` [Example 207, 3-[7-(3-Chloro-4-trifluoromethyl-phenylamino)-thiazolo[5,4-d]pyrimidin-2-ylamino]-4-methyl-thiophene-2-carboxylic acid methyl ester], the results for the IC50 in experiment [1] and in experiment [2] were 345 nM and 758 nM, respectively.

In the case of `Cc1nc(Nc2ccc(C(F)(F)F)cc2)c2nc(Nc3c(C)noc3C)sc2n1` [Example 208, N^2-(3,5-Dimethyl-isoxazol-4-yl)-5-methyl-N^7-(4-trifluoromethyl-phenyl)thiazolo[5,4-d]pyrimidine-2,7-diamine], the IC50 amounted to 398 nM in experiment [1] and 401 nM in experiment [2].

Take `Cc1nc(Nc2ccc(C(C)(C)C)cc2)c2nc(Nc3c(C)noc3C)sc2n1` [Example 209, N^7-(4-tert-Butyl-phenyl)-N^2-(3,5-dimethyl-isoxazol-4-yl)-5-methyl-thiazolo[5,4-d]pyrimidine-2,7-diamine]: the IC50 was 162 nM in experiment [1] and 269 nM in experiment [2].

Turning to `Cc1nc(Nc2ccc(C(F)(F)F)cc2)c2nc(Nc3ncccc3C)sc2n1` [Example 211, 5-Methyl-N^2-(3-methyl-pyridin-2-yl)-N^7-(4-trifluoromethyl-phenyl)-thiazolo[5,4-d]pyrimidine-2,7-diamine], the IC50 in experiment [1] and in experiment [2] was at least 6670 nM throughout.

On to `Cc1nc(Nc2ccc(S(=O)(=O)N(C)C)cc2)c2nc(Nc3ncccc3C)sc2n1` [Example 212, N,N-Dimethyl-4-[5-methyl-2-(3-methyl-pyridin-2-ylamino)-thiazolo[5,4-d]pyrimidin-7-ylamino]-benzenesulfonamide], for which the IC50 in experiment [1] and in experiment [2] was at least 6670 nM in each case.

`Cc1cccnc1Nc1nc2c(Nc3ccc(C(F)(F)F)cc3)ncnc2s1` [Example 213, N^2-(3-Methyl-pyridin-2-yl)-N^7-(4-trifluoromethyl-phenyl)-thiazolo[5,4-d]pyrimidine-2,7-diamine]: the IC50 in experiment [1] and in experiment [2] was at least 6670 nM each time.

Consider `O=S(=O)(c1ccc(Nc2ncnc3sc(Nc4c(Cl)cncc4Cl)nc23)cc1)N1CCCC1` [Example 214, N^2-(3,5-Dichloro-pyridin-4-yl)-N^7-[4-(pyrrolidine-1-sulfonyl)-phenyl]thiazolo[5,4-d]pyrimidine-2,7-diamine], for which the IC50 amounted to 240 nM in experiment [1] and 907 nM in experiment [2].

As for `Fc1cc(Nc2ncnc3sc(Nc4c(Cl)cccc4Cl)nc23)ccc1C(F)(F)F` [Example 215, N^2-(2,6-Dichloro-phenyl)-N^7-(3-fluoro-4-trifluoromethyl-phenyl)-thiazolo[5,4-d]pyrimidine-2,7-diamine], the values for the IC50 in experiment [1] and in experiment [2] were 8 nM and 15 nM, respectively.

Regarding `O=S(=O)(c1ccc(Nc2ncnc3sc(Nc4ccccc4Cl)nc23)cc1)N1CCOCC1` [Example 216, N^2-(2-Chlorophenyl)-N^7-[4-(morpholin-4-ylsulfonyl)phenyl][1,3]thiazolo[5,4-d]pyrimidine-2,7-diamine], the IC50 is 15 nM in experiment [1] and 24 nM in experiment [2].

`Cc1ccccc1Nc1nc2c(Nc3ccc(S(=O)(=O)N4CCOCC4)cc3)ncnc2s1` [Example 217, N^2-(2-Methylphenyl)-N^7-[4-(morpholin-4-ylsulfonyl)phenyl][1,3]thiazolo[5,4-d]pyrimidine-2,7-diamine]: the IC50 in experiment [1] amounted to 4 nM; in experiment [2], 8 nM.

As for `Cc1ccccc1Nc1nc2c(Nc3ccc(C(F)(F)F)nc3)ncnc2s1` [Example 218, N^2-(2-Methylphenyl)-N^7-[6-(trifluoromethyl)pyridin-3-yl][1,3]thiazolo[5,4-d]pyrimidine-2,7-diamine], the values for the IC50 in experiment [1] and in experiment [2] were 24 nM and 55 nM, respectively.

Consider `FC(F)(F)c1ccc(Nc2ncnc3sc(Nc4ccccc4C(F)(F)F)nc23)cn1` [Example 219, N^2-[2-(Trifluoromethyl)phenyl]-N^7-[6-(trifluoromethyl)pyridin-3-yl][1,3]thiazolo[5,4-d]pyrimidine-2,7-diamine], for which the IC50 in experiment [1] came to 76 nM; in experiment [2] it was 104 nM.

For `FC(F)(F)c1ccc(Nc2ncnc3sc(Nc4ccccc4Cl)nc23)cn1` [Example 220, N^2-(2-Chlorophenyl)-N^7-[6-(trifluoromethyl)pyridin-3-yl][1,3]thiazolo[5,4-d]pyrimidine-2,7-diamine], the IC50 in experiment [1] was determined as 38 nM; in experiment [2] it was 43 nM.

On to `Cc1noc(C)c1Nc1nc2c(Nc3ccc(S(=O)(=O)N4CCOCC4)cc3)ncnc2s1` [Example 221, N^2-(3,5-Dimethylisoxazol-4-yl)-N^7-[4-(morpholin-4-ylsulfonyl)phenyl][1,3]thiazolo[5,4-d]pyrimidine-2,7-diamine], for which the IC50 in experiment [1] amounted to 271 nM; in experiment [2], 1080 nM.

Regarding `COC(=O)C(C)(C)c1ccc(Nc2ncnc3sc(Nc4c(C)noc4C)nc23)cc1` [Example 222, Methyl 2-[4-({2-[(3,5-dimethylisoxazol-4-yl)amino][1,3]thiazolo[5,4-d]pyrimidin-7-yl}amino)phenyl]-2-methylpropanoate], the IC50 is 72 nM in experiment [1] and 100 nM in experiment [2].

For `Cc1noc(C)c1Nc1nc2c(Nc3ccc(C(C)(C)C#N)cc3)ncnc2s1` [Example 223, 2-[4-({2-[(3,5-Dimethylisoxazol-4-yl)amino][1,3]thiazolo[5,4-d]pyrimidin-7-yl}amino)phenyl]-2-methylpropanenitrile], the results for the concentration for half-maximal inhibition (IC50) in experiment [1] and in experiment [2] were 95 nM and 169 nM, respectively.

As to `Cc1noc(C)c1Nc1nc2c(Nc3ccc(S(C)(=O)=O)cc3)ncnc2s1` [Example 224, N^2-(3,5-Dimethylisoxazol-4-yl)-N^7-[4-(methylsulfonyl)phenyl][1,3]thiazolo[5,4-d]pyrimidine-2,7-diamine], the IC50 in experiment [1] worked out at 1580 nM; in experiment [2], 5530 nM.

Consider `FC(F)(F)c1ccc(Nc2ncnc3sc(Nc4ccccc4C(F)(F)F)nc23)cc1` [Example 225, N^2-[2-(Trifluoromethyl)phenyl]-N^7-[4-(trifluoromethyl)phenyl][1,3]thiazolo[5,4-d]pyrimidine-2,7-diamine], for which the IC50 came to 32 nM in experiment [1] and 91 nM in experiment [2].

`CS(=O)(=O)c1ccc(Nc2ncnc3sc(Nc4ccccc4C(F)(F)F)nc23)cc1` [Example 226, N^7-[4-(Methylsulfonyl)phenyl]-N^2-[2-(trifluoromethyl)phenyl][1,3]thiazolo[5,4-d]pyrimidine-2,7-diamine]: the IC50 came out at 135 nM in experiment [1] and 567 nM in experiment [2].

Consider `Oc1ccc(Nc2ncnc3sc(Nc4c(Cl)cccc4Cl)nc23)cc1O` [Example 227, 4-({2-[(2,6-Dichlorophenyl)amino][1,3]thiazolo[5,4-d]pyrimidin-7-yl}amino)benzene-1,2-diol], for which the IC50 in experiment [1] and in experiment [2] was over 6670 nM throughout.

Regarding `CC(C)(C#N)c1ccc(Nc2ncnc3sc(Nc4c(Cl)cccc4Cl)nc23)cc1` [Example 228, 2-[4-({2-[(2,6-Dichlorophenyl)amino][1,3]thiazolo[5,4-d]pyrimidin-7-yl}amino)phenyl]-2-methylpropanenitrile], the figures for the IC50 in experiment [1] and in experiment [2] were 98 nM and 101 nM, respectively.

`COC(=O)C(C)(C)c1ccc(Nc2ncnc3sc(Nc4c(Cl)cccc4Cl)nc23)cc1` [Example 229, Methyl 2-[4-({2-[(2,6-dichlorophenyl)amino][1,3]thiazolo[5,4-d]pyrimidin-7-yl}amino)phenyl]-2-methylpropanoate]: the figures for the IC50 in experiment [1] and in experiment [2] were 71 nM and 139 nM, respectively.

For the compound `CC(C)(C(=O)O)c1ccc(Nc2ncnc3sc(Nc4c(Cl)cccc4Cl)nc23)cc1` [Example 230, 2-[4-({2-[(2,6-Dichlorophenyl)amino][1,3]thiazolo[5,4-d]pyrimidin-7-yl}amino)phenyl]-2-methylpropanoic acid], the IC50 is 2 nM in experiment [1] and 43 nM in experiment [2].

Source of the values: patent US20080004253A1, “Thiazolopyrimidine modulators of TRPV1” (priority 2006, published 2008).
